Test results reported in ChEMBL document CHEMBL5696442, “Discovery of type II inhibitors of TGFβ-activated kinase 1 (TAK1) and mitogen-activated protein kinase kinase kinase kinase 2 (MAP4K2)” (J Med Chem, 2015).
Active and inactive are the calls of the source. The calls are words filed in the database; no cut-off is given here.

Columns and labels:
[1] = system: Tyrosine-protein kinase ABL1 (Homo sapiens), P00519 [Y253F]; test: Inhibition of phosphorylated ABL1 Y253F mutant (unknown origin) at 1 uM by Ambit Kinomescan binding assay relative to control; values are per cent of control
[2] = biological target: Protein kinase C iota type (Homo sapiens) (UniProt P41743); test: Inhibition of PRKCI (unknown origin) at 1 uM by Ambit Kinomescan binding assay relative to control; values are per cent of control
[3] = biological target: Activin receptor type-1 (Homo sapiens) (UniProt Q04771); test: Inhibition of ACVR1 (unknown origin) at 1 uM by Ambit Kinomescan binding assay relative to control
[4] = biological target: T1, Serine/threonine-protein kinase ULK3 (Homo sapiens) (UniProt Q6PHR2); test: Inhibition of ULK3 (unknown origin) at 1 uM by Ambit Kinomescan binding assay relative to control
T1 sequence (whole entry): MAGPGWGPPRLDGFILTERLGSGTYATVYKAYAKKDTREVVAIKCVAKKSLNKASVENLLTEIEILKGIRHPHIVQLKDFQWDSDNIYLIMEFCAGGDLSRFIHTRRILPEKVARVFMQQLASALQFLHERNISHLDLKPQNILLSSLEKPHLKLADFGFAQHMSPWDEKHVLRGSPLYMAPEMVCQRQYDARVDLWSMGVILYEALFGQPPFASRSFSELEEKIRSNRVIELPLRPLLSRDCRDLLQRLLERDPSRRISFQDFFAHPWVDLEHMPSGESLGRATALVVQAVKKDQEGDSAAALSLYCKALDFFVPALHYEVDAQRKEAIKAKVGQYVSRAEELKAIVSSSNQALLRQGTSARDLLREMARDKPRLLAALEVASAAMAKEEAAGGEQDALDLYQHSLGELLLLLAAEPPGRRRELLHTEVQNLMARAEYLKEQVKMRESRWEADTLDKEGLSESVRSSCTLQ

[5] = biological target: T2, Serine/threonine-protein kinase D1 (Homo sapiens) (UniProt Q15139); test: Inhibition of PKD1 Lys1 labeling site in human A-375 cells at 5 uM by KiNativ Profiling analysis relative to control; type: cell-based
T2 sequence (whole entry): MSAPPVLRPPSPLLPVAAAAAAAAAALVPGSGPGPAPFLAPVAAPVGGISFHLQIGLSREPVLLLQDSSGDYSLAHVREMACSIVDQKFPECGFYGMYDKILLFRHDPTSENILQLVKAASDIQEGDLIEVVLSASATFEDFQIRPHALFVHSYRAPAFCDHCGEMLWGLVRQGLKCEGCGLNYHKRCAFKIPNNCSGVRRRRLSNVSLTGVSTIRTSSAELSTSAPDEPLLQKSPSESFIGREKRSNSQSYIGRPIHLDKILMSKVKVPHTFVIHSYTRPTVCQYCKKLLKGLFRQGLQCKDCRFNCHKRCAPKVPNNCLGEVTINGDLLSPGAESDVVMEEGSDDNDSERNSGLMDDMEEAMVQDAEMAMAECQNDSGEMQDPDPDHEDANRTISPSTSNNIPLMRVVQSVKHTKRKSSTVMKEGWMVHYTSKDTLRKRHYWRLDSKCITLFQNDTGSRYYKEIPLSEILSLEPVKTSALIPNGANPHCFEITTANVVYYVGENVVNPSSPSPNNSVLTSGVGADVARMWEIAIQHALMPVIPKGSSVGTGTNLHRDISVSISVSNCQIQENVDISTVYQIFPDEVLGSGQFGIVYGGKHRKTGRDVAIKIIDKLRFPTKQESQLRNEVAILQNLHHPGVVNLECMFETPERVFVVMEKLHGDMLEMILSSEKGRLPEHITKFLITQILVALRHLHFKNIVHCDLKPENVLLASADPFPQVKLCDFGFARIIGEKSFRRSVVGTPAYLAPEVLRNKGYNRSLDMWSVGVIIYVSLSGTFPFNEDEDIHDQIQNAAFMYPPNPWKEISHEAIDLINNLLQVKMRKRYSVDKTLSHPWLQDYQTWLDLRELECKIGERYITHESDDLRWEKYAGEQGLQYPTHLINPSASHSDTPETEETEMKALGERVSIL

[6] = biological target: Serine/threonine-protein kinase SMG1 (Homo sapiens) (UniProt Q96Q15); test: Inhibition of SMG1 ATP labeling site harbouring SYPYLFKGLEDLHLDER in human A-375 cells at 5 uM by KiNativ Profiling analysis relative to control; type: cell-based
[7] = system: Mast/stem cell growth factor receptor Kit (Homo sapiens), P10721 [D816V]; test: Inhibition of KIT D816V mutant (unknown origin) at 1 uM by Ambit Kinomescan binding assay relative to control; values are per cent of control
[8] = biological target: Ribosomal protein S6 kinase alpha-1 (Homo sapiens) (UniProt Q15418); test: Inhibition of RSK1 Domain 1 ACT labeling site harbouring LTDFGLSKEAIDHEKK in human Huh-7 cells at 1 uM by KiNativ Profiling analysis relative to control; type: cell-based
[9] = biological target: Serine/threonine-protein kinase BRSK1 (Homo sapiens) (UniProt Q8TDC3); test: Inhibition of BRSK1 (unknown origin) at 10 uM by Ambit Kinomescan binding assay
[10] = Inhibition of […] K2 labeling site in human Huh-7 cells at 1 uM by KiNativ Profiling analysis relative to control; details: condition cancer
[11] = biological target: DNA-PK/Ku70/Ku85 (Homo sapiens) (UniProt P78527+P12956+P13010); test: Inhibition of DNAPK ATP labeling site harbouring GHDEREHPFLVKGGEDLRQDQR in human A-375 cells at 0.5 uM by KiNativ Profiling analysis relative to control; type: cell-based
[12] = Inhibition of KHS1 Lys1 labeling site in human A-375 cells at 5 uM by KiNativ Profiling analysis relative to control; details: condition cancer
[13] = biological target: Serine/threonine-protein kinase B-raf (Homo sapiens, UniProt P15056); test: Inhibition of BRAF K2 labeling site in human Huh-7 cells at 1 uM by KiNativ Profiling analysis relative to control; type: cell-based
[14] = biological target: Serine/threonine-protein kinase PLK3 (Homo sapiens) (UniProt Q9H4B4); test: Inhibition of PLK3 (unknown origin) at 10 uM by Ambit Kinomescan binding assay
[15] = biological target: Cyclin-dependent kinase 5 (Homo sapiens) (UniProt Q00535); test: Inhibition of CDK5 Lys2 labeling site harbouring NVLHRDLKPQNLLINR in human Huh-7 cell lysate at 1 uM by KiNativ Profiling analysis relative to control; type: subcellular
[16] = biological target: Calcium/calmodulin-dependent protein kinase type II subunit alpha (Homo sapiens) (UniProt Q9UQM7); test: Inhibition of CaMK2a Lys2 labeling site in human Huh-7 cell lysate at 1 uM by KiNativ Profiling analysis relative to control; type: subcellular
[17] = biological target: Cyclin-dependent kinase 9 (Homo sapiens) (UniProt P50750); test: Inhibition of CDK9 Lys2 labeling site in human Huh-7 cells at 1 uM by KiNativ Profiling analysis relative to control; type: cell-based
Sequence of Cyclin-dependent kinase 9 (Homo sapiens) (P50750 whole entry): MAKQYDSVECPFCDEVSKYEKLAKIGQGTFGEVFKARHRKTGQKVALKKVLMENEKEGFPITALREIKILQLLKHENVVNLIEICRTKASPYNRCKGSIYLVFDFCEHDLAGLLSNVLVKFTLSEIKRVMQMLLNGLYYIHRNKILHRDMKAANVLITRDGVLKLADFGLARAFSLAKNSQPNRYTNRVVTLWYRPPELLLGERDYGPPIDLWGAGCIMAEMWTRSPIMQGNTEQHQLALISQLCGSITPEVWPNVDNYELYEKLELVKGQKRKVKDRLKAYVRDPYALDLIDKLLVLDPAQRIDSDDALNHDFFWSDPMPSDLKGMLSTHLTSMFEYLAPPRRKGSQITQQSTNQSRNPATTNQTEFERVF

Sequence of Serine/threonine-protein kinase SMG1 (Homo sapiens) (Q96Q15 whole entry): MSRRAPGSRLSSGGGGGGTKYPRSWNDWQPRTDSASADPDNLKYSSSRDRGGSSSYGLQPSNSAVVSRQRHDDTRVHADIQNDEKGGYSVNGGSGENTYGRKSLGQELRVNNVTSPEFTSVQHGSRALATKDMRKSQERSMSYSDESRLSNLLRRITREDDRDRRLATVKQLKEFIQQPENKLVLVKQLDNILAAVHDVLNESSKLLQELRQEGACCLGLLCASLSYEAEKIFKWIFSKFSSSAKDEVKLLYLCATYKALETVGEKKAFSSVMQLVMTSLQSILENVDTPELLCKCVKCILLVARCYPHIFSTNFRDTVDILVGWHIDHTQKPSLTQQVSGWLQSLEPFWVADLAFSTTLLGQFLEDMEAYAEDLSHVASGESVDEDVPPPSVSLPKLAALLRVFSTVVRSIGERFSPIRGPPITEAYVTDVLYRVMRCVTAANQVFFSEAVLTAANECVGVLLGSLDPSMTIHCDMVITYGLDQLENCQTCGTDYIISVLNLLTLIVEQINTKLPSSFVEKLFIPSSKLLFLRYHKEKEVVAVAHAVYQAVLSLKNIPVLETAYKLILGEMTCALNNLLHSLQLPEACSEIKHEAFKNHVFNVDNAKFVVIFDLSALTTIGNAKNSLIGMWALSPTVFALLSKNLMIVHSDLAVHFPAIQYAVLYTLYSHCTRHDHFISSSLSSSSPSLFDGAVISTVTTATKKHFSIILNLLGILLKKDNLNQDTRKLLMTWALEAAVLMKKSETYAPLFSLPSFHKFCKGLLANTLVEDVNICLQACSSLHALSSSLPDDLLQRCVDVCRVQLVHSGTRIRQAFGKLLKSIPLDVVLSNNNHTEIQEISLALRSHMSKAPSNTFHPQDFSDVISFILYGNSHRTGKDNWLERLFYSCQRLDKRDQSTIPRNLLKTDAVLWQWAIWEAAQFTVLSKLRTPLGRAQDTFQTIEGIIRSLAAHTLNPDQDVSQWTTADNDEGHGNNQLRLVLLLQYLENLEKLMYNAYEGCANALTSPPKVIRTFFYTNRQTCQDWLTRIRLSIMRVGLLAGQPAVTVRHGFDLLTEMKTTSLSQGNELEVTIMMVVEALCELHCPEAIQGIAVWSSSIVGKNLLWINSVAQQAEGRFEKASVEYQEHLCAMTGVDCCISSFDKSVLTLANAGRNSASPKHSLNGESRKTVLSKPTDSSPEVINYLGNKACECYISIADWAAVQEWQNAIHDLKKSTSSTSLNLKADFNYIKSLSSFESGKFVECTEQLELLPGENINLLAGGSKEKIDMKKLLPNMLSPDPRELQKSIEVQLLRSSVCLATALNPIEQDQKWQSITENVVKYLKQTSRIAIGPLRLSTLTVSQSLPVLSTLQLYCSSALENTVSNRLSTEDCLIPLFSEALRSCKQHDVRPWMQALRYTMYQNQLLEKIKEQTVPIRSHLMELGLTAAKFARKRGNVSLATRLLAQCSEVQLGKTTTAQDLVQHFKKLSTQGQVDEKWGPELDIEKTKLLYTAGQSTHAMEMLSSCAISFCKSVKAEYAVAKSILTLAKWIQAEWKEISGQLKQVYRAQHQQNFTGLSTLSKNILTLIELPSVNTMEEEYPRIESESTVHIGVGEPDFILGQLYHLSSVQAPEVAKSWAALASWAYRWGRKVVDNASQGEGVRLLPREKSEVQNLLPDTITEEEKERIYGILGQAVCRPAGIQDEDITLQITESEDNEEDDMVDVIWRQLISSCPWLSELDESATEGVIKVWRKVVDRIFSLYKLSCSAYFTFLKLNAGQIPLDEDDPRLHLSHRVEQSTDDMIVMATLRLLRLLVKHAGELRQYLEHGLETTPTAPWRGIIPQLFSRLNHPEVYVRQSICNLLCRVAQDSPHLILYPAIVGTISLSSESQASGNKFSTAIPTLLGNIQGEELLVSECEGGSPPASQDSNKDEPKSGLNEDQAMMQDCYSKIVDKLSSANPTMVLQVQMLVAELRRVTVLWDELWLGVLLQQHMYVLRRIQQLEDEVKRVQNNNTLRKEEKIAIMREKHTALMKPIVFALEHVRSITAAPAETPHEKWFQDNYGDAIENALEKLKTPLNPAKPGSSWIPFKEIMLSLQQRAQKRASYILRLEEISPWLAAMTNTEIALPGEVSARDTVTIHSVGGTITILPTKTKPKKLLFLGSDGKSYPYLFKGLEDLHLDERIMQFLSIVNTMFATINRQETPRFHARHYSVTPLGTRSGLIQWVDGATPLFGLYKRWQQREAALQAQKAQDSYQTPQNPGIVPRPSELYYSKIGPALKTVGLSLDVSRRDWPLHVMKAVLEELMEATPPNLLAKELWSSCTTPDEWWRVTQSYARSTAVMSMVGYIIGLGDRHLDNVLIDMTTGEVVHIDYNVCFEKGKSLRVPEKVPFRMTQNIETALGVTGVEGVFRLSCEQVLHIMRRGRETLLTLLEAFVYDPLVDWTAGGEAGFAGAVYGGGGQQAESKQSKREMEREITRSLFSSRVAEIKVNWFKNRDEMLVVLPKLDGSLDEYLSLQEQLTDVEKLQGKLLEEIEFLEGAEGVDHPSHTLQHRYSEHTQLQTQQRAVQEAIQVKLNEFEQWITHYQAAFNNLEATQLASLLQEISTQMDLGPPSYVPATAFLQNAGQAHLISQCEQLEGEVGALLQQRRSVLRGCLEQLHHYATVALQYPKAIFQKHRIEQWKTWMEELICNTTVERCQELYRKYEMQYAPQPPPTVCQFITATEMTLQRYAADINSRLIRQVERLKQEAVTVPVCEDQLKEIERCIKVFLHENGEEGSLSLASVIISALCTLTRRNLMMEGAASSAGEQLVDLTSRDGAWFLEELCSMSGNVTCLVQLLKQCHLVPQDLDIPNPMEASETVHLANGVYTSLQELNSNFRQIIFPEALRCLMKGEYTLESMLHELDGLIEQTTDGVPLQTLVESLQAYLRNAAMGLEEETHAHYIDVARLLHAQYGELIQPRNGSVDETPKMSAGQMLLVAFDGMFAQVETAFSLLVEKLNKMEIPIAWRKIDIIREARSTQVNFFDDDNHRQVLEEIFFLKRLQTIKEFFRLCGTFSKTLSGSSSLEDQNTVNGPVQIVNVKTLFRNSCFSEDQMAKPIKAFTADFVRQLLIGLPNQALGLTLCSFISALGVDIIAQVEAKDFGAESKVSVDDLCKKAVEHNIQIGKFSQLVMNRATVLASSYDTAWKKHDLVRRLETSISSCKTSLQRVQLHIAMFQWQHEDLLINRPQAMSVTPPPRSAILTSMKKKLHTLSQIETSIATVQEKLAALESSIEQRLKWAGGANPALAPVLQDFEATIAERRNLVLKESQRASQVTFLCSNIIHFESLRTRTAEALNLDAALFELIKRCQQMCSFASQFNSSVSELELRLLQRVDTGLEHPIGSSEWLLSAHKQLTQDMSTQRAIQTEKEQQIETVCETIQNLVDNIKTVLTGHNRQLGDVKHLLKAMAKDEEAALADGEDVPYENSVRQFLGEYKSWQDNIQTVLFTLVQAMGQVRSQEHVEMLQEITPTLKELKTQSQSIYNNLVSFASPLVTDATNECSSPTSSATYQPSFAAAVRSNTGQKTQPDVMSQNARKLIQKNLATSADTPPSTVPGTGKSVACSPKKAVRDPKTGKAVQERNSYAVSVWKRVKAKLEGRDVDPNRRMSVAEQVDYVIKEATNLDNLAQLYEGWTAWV
Sequence of Ribosomal protein S6 kinase alpha-1 (Homo sapiens) (Q15418 whole entry, the tested form may be a part): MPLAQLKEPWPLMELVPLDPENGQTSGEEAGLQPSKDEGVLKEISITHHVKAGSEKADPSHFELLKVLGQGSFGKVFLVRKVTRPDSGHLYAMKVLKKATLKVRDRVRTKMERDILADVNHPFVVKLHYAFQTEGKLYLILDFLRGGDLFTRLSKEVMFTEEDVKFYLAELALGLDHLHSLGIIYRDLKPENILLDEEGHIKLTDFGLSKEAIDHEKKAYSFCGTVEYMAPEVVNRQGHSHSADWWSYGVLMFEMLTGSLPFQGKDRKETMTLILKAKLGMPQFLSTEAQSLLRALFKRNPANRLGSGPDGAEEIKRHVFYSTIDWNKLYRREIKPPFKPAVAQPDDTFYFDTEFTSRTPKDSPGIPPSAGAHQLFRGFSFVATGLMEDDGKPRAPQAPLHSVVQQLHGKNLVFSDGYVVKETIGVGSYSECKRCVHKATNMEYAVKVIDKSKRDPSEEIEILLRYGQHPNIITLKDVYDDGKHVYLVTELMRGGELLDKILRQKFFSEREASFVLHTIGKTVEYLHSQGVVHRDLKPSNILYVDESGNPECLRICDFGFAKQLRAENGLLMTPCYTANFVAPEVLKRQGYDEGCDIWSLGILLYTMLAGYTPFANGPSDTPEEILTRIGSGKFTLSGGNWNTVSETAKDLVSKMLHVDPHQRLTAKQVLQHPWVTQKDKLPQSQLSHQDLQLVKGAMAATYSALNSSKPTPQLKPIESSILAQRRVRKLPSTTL
Sequence of Cyclin-dependent kinase 5 (Homo sapiens) (Q00535 whole entry, looked up): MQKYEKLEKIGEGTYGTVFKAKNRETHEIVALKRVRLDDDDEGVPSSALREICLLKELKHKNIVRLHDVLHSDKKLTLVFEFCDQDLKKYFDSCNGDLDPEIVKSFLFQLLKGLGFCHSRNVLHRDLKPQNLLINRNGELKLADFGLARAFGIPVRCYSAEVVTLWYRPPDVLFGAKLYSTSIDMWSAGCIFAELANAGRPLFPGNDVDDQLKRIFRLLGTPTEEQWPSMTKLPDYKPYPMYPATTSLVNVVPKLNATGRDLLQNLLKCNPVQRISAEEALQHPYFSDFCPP

## CCN1CCN(Cc2ccc(NC(=O)c3ccc(C)c(/C=C/c4cnc5[nH]ccc5c4OC)c3)cc2C(F)(F)F)CC1
[1]
  percent of control: 0.75%
[2]
  residual activity: 100%
[3]
  inhibition: 100%
[4]
  inhibition: 55%
[5]
  inhibition: -9.9%
[6]
  inhibition: 24.4%
[7]
  residual activity: 8.8%

## CCN1CCN(Cc2ccc(NC(=O)c3ccc(C)c(Oc4ccnc5[nH]ccc45)c3)cc2C(F)(F)F)CC1
[8]
  inhibition: 6.9%
[9]
  inhibition: inactive
[10]
  inhibition at 1 µM: -16%
[11]
  inhibition: -6%
[12]
  inhibition at 5 µM: 61.3%
[13]
  inhibition: 1.7%
[14]
  inhibition: inactive

## CNc1cc(Oc2cc(C(=O)Nc3cc(N4CCN(C)CC4)cc(C(F)(F)F)c3)ccc2C)ncn1
[15]
  inhibition: 22.5%
[16]
  inhibition: 0.7%
[17]
  inhibition: 22.4%
